# Assay results: US20250154144A1 (CHILDREN'S HOSPITAL MEDICAL CENTER, priority 2021, published 2025)
# Where two headings read alike, the source gives them in different places.
# Tests used:
# [1] = target: T1, FLT3 D835V (Homo sapiens, UniProt P36888, D835V); experiment: DiscoverX KINOMEscan competition binding, FLT3 D835V
# T1 construct: purchased DiscoverX (KINOMEscan)
# T1 sequence (P36888 27-993 D835V): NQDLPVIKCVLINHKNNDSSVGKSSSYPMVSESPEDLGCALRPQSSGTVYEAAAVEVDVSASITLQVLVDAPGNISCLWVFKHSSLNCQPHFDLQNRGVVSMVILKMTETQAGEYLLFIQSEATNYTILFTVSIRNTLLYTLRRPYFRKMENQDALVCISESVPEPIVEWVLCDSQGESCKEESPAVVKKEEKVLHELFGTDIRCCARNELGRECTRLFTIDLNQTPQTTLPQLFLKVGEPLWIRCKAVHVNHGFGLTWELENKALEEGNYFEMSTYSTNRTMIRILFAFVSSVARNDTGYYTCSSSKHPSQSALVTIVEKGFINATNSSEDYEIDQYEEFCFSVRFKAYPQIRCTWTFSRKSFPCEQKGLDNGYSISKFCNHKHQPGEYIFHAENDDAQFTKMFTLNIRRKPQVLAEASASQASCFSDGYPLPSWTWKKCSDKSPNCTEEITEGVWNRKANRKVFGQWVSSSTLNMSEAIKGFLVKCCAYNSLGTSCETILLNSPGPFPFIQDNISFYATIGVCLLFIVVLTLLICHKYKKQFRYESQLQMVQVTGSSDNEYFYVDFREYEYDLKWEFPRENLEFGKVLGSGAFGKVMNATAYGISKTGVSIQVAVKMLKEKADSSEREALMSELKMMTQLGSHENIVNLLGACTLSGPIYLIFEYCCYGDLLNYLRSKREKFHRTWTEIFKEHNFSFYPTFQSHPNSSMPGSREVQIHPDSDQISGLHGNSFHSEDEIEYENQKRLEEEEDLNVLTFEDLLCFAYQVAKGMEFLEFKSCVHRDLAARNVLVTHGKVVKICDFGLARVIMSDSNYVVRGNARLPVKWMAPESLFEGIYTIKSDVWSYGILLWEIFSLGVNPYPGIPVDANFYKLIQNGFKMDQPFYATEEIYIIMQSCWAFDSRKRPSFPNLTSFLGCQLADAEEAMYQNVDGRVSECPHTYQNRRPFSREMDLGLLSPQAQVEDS
# [2] = target: T2, FLT3 ITD, D835V (Homo sapiens, UniProt P36888, D835V, form not given); experiment: DiscoverX KINOMEscan competition binding, FLT3 ITD, D835V; conditions: read-out: FLT3 ITD, D835V Kd
# T2 sequence (P36888 1-993 D835V): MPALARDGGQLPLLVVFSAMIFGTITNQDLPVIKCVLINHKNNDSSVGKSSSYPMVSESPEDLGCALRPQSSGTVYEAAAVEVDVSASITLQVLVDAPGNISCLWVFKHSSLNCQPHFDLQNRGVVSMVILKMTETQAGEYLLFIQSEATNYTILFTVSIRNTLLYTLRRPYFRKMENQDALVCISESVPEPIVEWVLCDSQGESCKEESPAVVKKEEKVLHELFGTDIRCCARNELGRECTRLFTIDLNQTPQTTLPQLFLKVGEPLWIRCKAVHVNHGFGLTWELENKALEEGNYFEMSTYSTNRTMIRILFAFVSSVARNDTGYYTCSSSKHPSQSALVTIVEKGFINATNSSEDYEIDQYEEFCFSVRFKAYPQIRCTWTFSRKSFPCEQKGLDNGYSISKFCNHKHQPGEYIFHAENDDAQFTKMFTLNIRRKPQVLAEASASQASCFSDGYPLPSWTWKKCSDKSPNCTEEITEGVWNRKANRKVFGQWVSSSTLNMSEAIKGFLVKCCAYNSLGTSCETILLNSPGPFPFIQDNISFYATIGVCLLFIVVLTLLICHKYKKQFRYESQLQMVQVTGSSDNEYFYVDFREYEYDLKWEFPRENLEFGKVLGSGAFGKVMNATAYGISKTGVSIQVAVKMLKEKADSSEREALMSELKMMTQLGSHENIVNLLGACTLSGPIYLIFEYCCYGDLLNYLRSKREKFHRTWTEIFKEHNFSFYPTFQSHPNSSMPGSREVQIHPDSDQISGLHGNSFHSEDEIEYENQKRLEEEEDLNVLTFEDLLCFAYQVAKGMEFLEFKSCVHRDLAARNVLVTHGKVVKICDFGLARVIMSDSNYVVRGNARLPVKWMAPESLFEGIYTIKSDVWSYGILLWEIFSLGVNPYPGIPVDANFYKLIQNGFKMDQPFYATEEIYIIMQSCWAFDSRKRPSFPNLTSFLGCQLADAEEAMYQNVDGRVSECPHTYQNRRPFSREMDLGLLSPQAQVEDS
# [3] = target: T3, FLT3 (Homo sapiens, UniProt P36888); experiment: RBC HotSpot Kinase Assay, FLT3
# T3 sequence (P36888 610-943 limits assumed): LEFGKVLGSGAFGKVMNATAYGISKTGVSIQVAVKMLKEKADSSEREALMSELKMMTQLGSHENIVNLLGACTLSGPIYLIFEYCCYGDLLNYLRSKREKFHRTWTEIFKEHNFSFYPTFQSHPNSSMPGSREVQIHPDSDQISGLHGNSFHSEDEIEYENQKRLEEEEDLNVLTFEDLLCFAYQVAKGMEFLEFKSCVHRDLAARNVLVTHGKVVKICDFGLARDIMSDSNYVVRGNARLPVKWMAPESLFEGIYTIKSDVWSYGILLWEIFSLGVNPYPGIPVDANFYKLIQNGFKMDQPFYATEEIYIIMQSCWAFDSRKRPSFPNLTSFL
SMILES,Kd [1],Kd [2],IC50 ([3]; read-out: FLT3 IC50),IC50 ([3]; FLT3 IC50)
"F[C@H]1CCNC[C@@H]1Nc1cncc(-c2cnc3cc(OC4CC4)ccn23)n1 [Compound 12, 6-(7-cyclopropoxyimidazo[1,2-a]pyridin-3-yl)-N-((3S,4S)-4-fluoropiperidin-3-yl)pyrazin-2-amine]",0.16 nM,0.035 nM,–,< 0.5 nM
"COc1cc2ncc(-c3cncc(N[C@H]4CNC[C@@H]4F)n3)n2nc1C1CC1 [Compound 22, 6-(6-cyclopropyl-7-methoxyimidazo[1,2-b]pyridazin-3-yl)-N-((3S,4S)-4-fluoropyrrolidin-3-yl)pyrazin-2-amine]",0.15 nM,0.058 nM,–,< 0.5 nM
"COc1cc2ncc(-c3cncc(N[C@H]4CNCC[C@@H]4F)n3)n2nc1C1CC1 [Compound 24, 6-(6-cyclopropyl-7-methoxyimidazo[1,2-b]pyridazin-3-yl)-N-((3S,4S)-4-fluoropiperidin-3-yl)pyrazin-2-amine]",0.063 nM,0.045 nM,–,< 0.5 nM
"COc1cc2ncc(-c3ccnc(N[C@@H]4CCCNC4)n3)n2cc1C(C)(C)O [Compound 44, (R)-2-(7-methoxy-3-(2-(piperidin-3-ylamino)pyrimidin-4-yl)imidazo[1,2-a]pyridin-6-yl)propan-2-ol]",0.042 nM,0.009 nM,–,< 0.5 nM
"COc1cc2ncc(-c3ccnc(N[C@H]4CNCC[C@@H]4F)n3)n2nc1C1CC1 [Compound 51, 4-(6-cyclopropyl-7-methoxyimidazo[1,2-b]pyridazin-3-yl)-N-((3S,4S)-4-fluoropiperidin-3-yl)pyrimidin-2-amine]",0.11 nM,0.07 nM,–,< 0.5 nM

# Next, values leading:
Kd [1],Kd [2],IC50 ([3]; read-out: FLT3 IC50),IC50 ([3]; FLT3 IC50),SMILES
0.47 nM,0.08 nM,< 0.5 nM,–,"CC(O)(c1cn2c(-c3ccnc(N[C@H]4CNCC[C@@H]4F)n3)cnc2cn1)C(F)(F)F (single isomer, unassigned) [Compound 72]"
0.06 nM,0.04 nM,–,< 0.5 nM,"COc1cc2ncc(-c3ccnc(N[C@H]4CNC[C@@H]4F)n3)n2nc1C1CC1 [Compound 49, 4-(6-cyclopropyl-7-methoxyimidazo[1,2-b]pyridazin-3-yl)-N-((3S,4S)-4-fluoropyrrolidin-3-yl)pyrimidin-2-amine]"
–,–,–,< 0.5 nM,"COc1cc2ncc(-c3ccnc(N[C@@H]4CCCNC4)n3)n2nc1C1CC1 [Compound 50, (R)-4-(6-cyclopropyl-7-methoxyimidazo[1,2-b]pyridazin-3-yl)-N-(piperidin-3-yl)pyrimidin-2-amine]"
